Results published in patent publication US20230365571A1, “COMPOUNDS AND COMPOSITIONS AS Sppl2a INHIBITORS” (Novartis AG, priority 2020, published 2023).

Columns and labels:
Format in all cases: cell-based
Sppl2a CD74 = molecular target: T1, Sppl2a CD74 (Mus musculus, UniProt Q9JJF9); experiment: CD74/p8 mouse whole blood assay, flow cytometry format; settings: Balb/c mouse whole blood, 5 h, CD74 signal on gated live B cells
T1 construct: Mouse whole blood Balb/c mice (sodium citrate) was ordered by Bioreclamation LLC; tissue Bioreclamation LLC
T1 sequence (Q9JJF9 26-523): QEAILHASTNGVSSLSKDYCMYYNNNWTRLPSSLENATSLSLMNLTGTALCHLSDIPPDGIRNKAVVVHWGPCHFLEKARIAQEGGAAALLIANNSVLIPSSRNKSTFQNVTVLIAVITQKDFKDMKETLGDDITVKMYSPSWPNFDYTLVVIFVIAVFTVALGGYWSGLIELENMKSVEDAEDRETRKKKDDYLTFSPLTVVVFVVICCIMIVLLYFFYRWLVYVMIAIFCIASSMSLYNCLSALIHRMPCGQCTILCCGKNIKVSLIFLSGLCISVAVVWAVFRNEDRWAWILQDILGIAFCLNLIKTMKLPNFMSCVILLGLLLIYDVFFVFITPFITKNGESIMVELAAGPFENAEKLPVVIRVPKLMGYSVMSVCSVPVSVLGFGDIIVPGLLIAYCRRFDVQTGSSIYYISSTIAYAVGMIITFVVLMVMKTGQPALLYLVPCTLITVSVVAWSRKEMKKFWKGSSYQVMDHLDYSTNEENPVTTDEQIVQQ
Method: CD74/p8 Mouse Whole Blood Assay: Flow Cytometry Format
Mouse whole blood Balb/c mice (sodium citrate) was ordered by Bioreclamation LLC; USA. The blood was used the next day upon receipt (stored at 4° C.). 100 μL blood were transferred in 96 well format plate, where compounds, an 11 point dilutions down from 30 μM, to be tested were previously deposited. The plate was incubated for 5 h in the incubator at 37° C., 5% CO2 under continuous motion. After the incubation the blood was diluted with RBC Lysis Buffer (Amined; Cat. Nr 3-13F00-H or BD; Cat. Nr 555899). The solution was mixed by pipetting and incubated 10 min in the 37° C. incubator. The white blood cells were sedimented for 3 min at 2000 rpm. After removing the supernatant the cell pellet was resuspended and washed twice in RCB Buffer and kept≈ 5 min at room temperature, followed by a centrifugation for 2 min at 2000 rpm. The cell pellet was then resuspend in D-PBS and centrifuged twice. Finally, the cells were taken up in of D-PBS/0.5% inactivated fetal bovine serum/2 mM EDTA. The cell suspension was treated with Live/Dead fixable stain (Life Technologies, >470 nm version), B cells were identified by surface staining with an anti-B220 antibody coupled to APC fluorofor. After staining, the cells were extensively washed with PBS. The cells were permeabilized and fixed in FACS lysing buffer; (BD; #349202, dil 1:10 in water) and labelled with an anti CD74, FITC labelled antibody, washed once more with diluted FACS lysing buffer and spin down. The cell pellet was washed with D-PBS/0.5% inactivated fetal bovine serum/2 mM EDTA and PBS prior to the analysis in a flow cytometer. The compound concentrations were plotted against the intensity (medium fluorescence intensity) of the CD74 signal on the gated life B cell and IC50 were determined by fitting data for a 11 concentrations dose response.

human SPPL2a [1] = molecular target: T2, human SPPL2a (Homo sapiens, UniProt Q8TCT8); experiment: Sppl2a TL (translocation) imaging assay in U-2 OS cells; set-up: expressed in transfected cells; settings: U-2 OS cells expressing human SPPL2a and EGFP-TNFα(aa1-76) NTF substrate; 24 h
T2 sequence (Q8TCT8 26-520): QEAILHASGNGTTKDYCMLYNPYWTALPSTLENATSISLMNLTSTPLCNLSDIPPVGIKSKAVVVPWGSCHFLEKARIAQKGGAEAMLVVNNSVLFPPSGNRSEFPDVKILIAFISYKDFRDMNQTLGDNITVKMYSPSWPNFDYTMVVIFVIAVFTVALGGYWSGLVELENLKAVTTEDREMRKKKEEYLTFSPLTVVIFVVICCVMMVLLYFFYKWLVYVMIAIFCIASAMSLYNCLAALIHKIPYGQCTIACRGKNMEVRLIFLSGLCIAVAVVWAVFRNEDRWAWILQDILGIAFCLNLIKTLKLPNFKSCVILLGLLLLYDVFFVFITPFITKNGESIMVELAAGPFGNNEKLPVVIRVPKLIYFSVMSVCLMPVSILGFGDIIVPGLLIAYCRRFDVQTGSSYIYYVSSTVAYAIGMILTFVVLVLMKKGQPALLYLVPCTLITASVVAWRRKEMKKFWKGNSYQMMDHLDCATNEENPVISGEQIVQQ
How it was run: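 U-2 OS cells stably expressing human SPPL2a plus doxycycline-induced EGFP-TNFα(aa1-76) NTF, treated 24 h at 37 °C with inhibitor (100 μM–1 nM, 11 points, 0.9% DMSO, 5 μg/mL doxycycline). Imaging of nuclear-minus-cytoplasmic EGFP intensity; % inhibition versus 0.5 μM LY-411,575 and DMSO, IC50 by nonlinear regression; CC50 from cell count.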

human SPPL2a [2] = molecular target: T2, human SPPL2a; experiment: Sppl2a RGA (reporter gene assay) in HEK293 cells; set-up: expressed in transfected cells; host or cells: HEK293 (transient); settings: NT-TNF-VP16-Gal4 substrate, Gal4-luciferase reporter, 24 h
How it was run: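 Cleavage of a membrane-bound TNF N-terminal–VP16-Gal4 substrate drives Gal4-luciferase expression in transiently transfected HEK293 cells also expressing human SPPL2a. Compounds incubated 24 h, 37 °C, 5% CO2; luminescence read, normalized and plotted against concentration for IC50.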

SMILES | IC50 (Sppl2a CD74) [nM] | IC50 (human SPPL2a [1]) [nM] | IC50 (human SPPL2a [2]) [nM]
CNC(=O)c1nc(C)c(C(=O)NC[C@H](C(=O)N[C@@H]2C(=O)N3CCCN3Cc3ccccc32)C(F)(F)F)s1 [Example 11, N^2,4-Dimethyl-N^5-((R)-3,3,3-trifluoro-2-(((S)-11-oxo-2,3,10,11-tetrahydro-1H,5H-benzo[d]pyrazolo [1,2-a][1,2]diazepin-10-yl)carbamoyl)pro-pyl)thiazole-2,5-dicarboxamide] | 95 | 4 | 3
CC[C@H](CNC(=O)c1sc(C2=CCOCC2)nc1Cl)C(=O)N[C@@H]1C(=O)N2CCCN2Cc2ccccc21 [Example 46, 4-Chloro-2-(3,6-dihydro-2H-pyran-4-yl)-N-((R)-2-(((S)-11-oxo-2,3,10,11-tetrahydro-1H,5H-benzo[d]pyrazolo [1,2-a][1,2]diazepin-10-yl)carbamoyl)butyl) thiazole-5-carboxamide] | 2680 | 79 | 54
COCC[C@H](CNC(=O)c1sc(-c2cc(C)no2)nc1C)C(=O)N[C@@H]1C(=O)N2CCCN2Cc2ccccc21 [Example 42, N-((R)-4-Methoxy-2-(((S)-11-oxo-2,3,10,11-tetrahydro-1H,5H-benzo[d]pyrazolo [1,2-a][1,2]diazepin-10-yl)carbamoyl)butyl)-4-methyl-2-(3-methylisoxazol-5-yl)thiazole-5-carboxamide] | 847 | 62 | 27
C[C@H](CC(=O)Nc1cc(NC(=O)C(C)(C)C)nn1C)C(=O)N[C@@H]1C(=O)N2CCCN2Cc2ccccc21 [Example 89, (R)-2-Methyl-N^4-(1-methyl-3-pivalamido-1H-pyrazol-5-yl)-N^1-((S)-11-oxo-2,3,10,11-tetrahydro-1H,5H-benzo[d]pyrazolo [1,2-a][1,2]diazepin-10-yl)succinamide] | 649 | 11 | 60
Cc1nc(C(=O)NC(C)C)sc1NC(=O)C[C@@H](C)C(=O)N[C@@H]1C(=O)N2CCCN2Cc2ccccc21 [Example 66, (R)-N^4-(2-(Isopropylcarba-moyl)-4-methylthiazol-5-yl)-2-methyl-N^1-((S)-11-oxo-2,3,10,11-tetrahydro-1H,5H-benzo[d]pyrazolo [1,2-a][1,2]diazepin-10-yl)succinamide] | 136 | 2 | 2
C[C@H](CC(=O)Nc1cc(-c2ccccn2)nn1C)C(=O)N[C@@H]1C(=O)N2CCCN2Cc2ccccc21 [Example 94, (R)-2-Methyl-N^4-(1-methyl-3-(pyridin-2-yl)-1H-pyrazol-5-yl)-N^1-((S)-11-oxo-2,3,10,11-tetrahydro-1H,5H-benzo[d]pyrazolo [1,2-a][1,2]diazepin-10-yl)succinamide] | 2540 | 12 | 34
CNC(=O)c1nc(C)c(C(=O)NC[C@H](C(=O)N[C@@H]2C(=O)N3CCCN3Cc3ccccc32)C2CC2)s1 [Example 9, N^5-((R)-2-Cyclopropyl-3-oxo-3-(((S)-11-oxo-2,3,10,11-tetrahydro-1H,5H-benzo[d]pyrazolo [1,2-a][1,2]diazepin-10-yl)amino)propyl)-N^2,4-dimethylthiazole-2,5-dicarboxamide] | 157 | 3 | 4
CCn1nc(-c2cc(C)no2)cc1NC(=O)C[C@@H](C)C(=O)N[C@@H]1C(=O)N2CCCN2Cc2ccccc21 [Example 101, (R)-N^4-(1-Ethyl-3-(3-methylisoxazol-5-yl)-1H-pyrazol-5-yl)-2-methyl-N^1-((S)-11-oxo-2,3,10,11-tetrahydro-1H,5H-benzo[d]pyrazolo [1,2-a][1,2]diazepin-10-yl)succinamide] | 473 | 15 | 7
CC(C)C(=O)Nc1cc(NC(=O)C[C@H](C(=O)N[C@@H]2C(=O)N3CC4(CC4)CN3C(=O)c3ccccc32)C2CCC2)n(C)n1 [Example 82, (S)-2-Cyclobutyl-N^1-((S)-5,11-dioxo-10,11-dihydro-1H,3H,5H-spiro[benzo[d]pyrazolo[1,2-a][1,2]diazepine-2,1′-cyclopropan]-10-yl)-N^4-(3-isobutyramido-1-methyl-1H-pyrazol-5-yl)succinamide] | 1870 | 9 | 36
CC(C)NC(=O)c1nc(Cl)c(C(=O)NC[C@@H](C)C(=O)N[C@@H]2C(=O)N3CCCN3Cc3ccccc32)s1 [Example 22, 4-Chloro-N^2-isopropyl-N^5-((R)-2-methyl-3-oxo-3-(((S)-11-oxo-2,3,10,11-tetrahydro-1H,5H-benzo[d]pyrazolo [1,2-a][1,2]diazepin-10-yl)amino)propyl) thiazole-2,5-dicarboxamide] | 3000 | 14 | 12
CC[C@H](CNC(=O)c1sc(-c2cnn(C(F)F)c2)nc1Cl)C(=O)N[C@@H]1C(=O)N2CC3(CC3)CN2C(=O)c2ccccc21 [Example 45, 4-Chloro-2-(1-(difluoromethyl)-1H-pyrazol-4-yl)-N-((R)-2-(((S)-5,11-dioxo-10,11-dihydro-1H,3H,5H-spiro[benzo[d]pyr-azolo[1,2-a][1,2]diazepine-2,1′-cyclopropan]-10-yl)carbamoyl)butyl) thiazole-5-carboxamide] | 2510 | 78 | 86
CCNC(=O)c1nc(C)c(C(=O)NC[C@@H](C)C(=O)N[C@@H]2C(=O)N3CCCN3Cc3ccccc32)s1 [Example 16, N^2-Ethyl-4-methyl-N^5-((R)-2-methyl-3-oxo-3-(((S)-11-oxo-2,3,10,11-tetrahydro-1H,5H-benzo[d]pyrazolo [1,2-a][1,2]diazepin-10-yl)amino)propyl) thiazole-2,5-dicarboxamide] | 659 | 11 | 8
CNC(=O)c1nc(C)c(C(=O)NC[C@@H](C)C(=O)N[C@@H]2C(=O)N3CCCN3Cc3ccccc32)s1 [Example 1, N^2,4-dimethyl-N^5—((R)-2-methyl-3-oxo-3-(((S)-11-oxo-2,3,10,11-tetrahydro-1H,5H-benzo[d]pyrazolo[1,2-a][1,2]diazepin-10-yl)amino)propyl)thiazole-2,5-dicarboxamide] | 358 | 24 | 29
Cc1noc(C)c1C(=O)NC[C@H](C(=O)N[C@@H]1C(=O)N2CCCN2C(=O)c2ccccc21)C(F)(F)F [Example 48, N-((R)-2-(((S)-5,11-Dioxo-2,3,10,11-tetrahydro-1H,5H-benzo[d]pyrazolo [1,2-a][1,2]diazepin-10-yl)carbamoyl)-3,3,3-trifluoropropyl)-3,5-dimethylisoxazole-4-carboxamide] |  | 85 | 22
